Patent US11999727B2 (Tango Therapeutics, Inc., priority 2020, dated 2024)
Like-named read-outs stand apart in the source and are kept apart here.

Legend:
[1] = tested on: HAP1 MTAP-deleted cell line; assay: Viability assay, MTAP-deleted cell line; format: cell-based; details: HAP1 MTAP-deleted cell line, read-out: HAP1 MTAP deleted viability
Source text: Table 1 additionally indicates IC50 values in a viability assay for the MTAP-deleted cell line (column 10), indicating the effect of treatment with compound on cell survival.

[2] = tested on: HAP1 MTAP-intact cell line; assay: SDMA in-cell western assay, HAP1 MTAP-intact; format: cell-based; details: HAP1 MTAP-intact, read-out: MTAP HAP1 intact IC50
Procedure, shortened: (§1)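 Isogenic HAP1 pair: the MTAP-intact line expresses endogenous MTAP, and the deleted line is MTAP-null. Symmetric dimethylarginine was detected by in-cell western and IC50 values derived for each line.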

PRMT5 [3] = target: T1, PRMT5 (Homo sapiens, UniProt O14744); assay: PRMT5 biochemical IC50 assay with no cofactor; details: PRMT5, no cofactor; read-out: No Cofactor/ rel IC50
T1 construct: purchased Viva (custom protein)
T1 sequence (O14744 whole entry): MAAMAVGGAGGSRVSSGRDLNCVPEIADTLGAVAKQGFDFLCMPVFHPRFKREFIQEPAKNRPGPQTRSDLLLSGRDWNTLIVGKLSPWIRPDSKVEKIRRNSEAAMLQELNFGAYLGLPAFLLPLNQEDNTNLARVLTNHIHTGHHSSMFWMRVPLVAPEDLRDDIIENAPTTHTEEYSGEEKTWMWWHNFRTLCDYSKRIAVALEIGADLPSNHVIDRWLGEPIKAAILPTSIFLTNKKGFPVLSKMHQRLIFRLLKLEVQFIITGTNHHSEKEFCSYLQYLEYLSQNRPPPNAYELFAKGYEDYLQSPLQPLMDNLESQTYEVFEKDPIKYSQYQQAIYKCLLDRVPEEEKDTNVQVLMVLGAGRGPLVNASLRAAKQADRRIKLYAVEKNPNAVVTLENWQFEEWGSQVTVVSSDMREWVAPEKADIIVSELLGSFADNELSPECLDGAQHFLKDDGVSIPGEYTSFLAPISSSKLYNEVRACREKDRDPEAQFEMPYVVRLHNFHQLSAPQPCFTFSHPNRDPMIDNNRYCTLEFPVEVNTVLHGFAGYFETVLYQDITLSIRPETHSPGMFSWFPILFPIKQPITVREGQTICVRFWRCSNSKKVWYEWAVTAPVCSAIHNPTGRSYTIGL
T1 sequence (Q9BQA1 whole entry partner): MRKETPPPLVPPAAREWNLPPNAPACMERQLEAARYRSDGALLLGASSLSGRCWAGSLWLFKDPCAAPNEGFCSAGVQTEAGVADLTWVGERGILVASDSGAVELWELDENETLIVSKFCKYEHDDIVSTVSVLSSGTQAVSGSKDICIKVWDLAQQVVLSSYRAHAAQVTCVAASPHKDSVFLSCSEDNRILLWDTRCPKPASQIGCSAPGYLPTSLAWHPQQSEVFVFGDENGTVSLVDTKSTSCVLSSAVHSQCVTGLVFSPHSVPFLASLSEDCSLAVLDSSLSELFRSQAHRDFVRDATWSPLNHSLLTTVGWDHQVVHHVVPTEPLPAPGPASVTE
Source text: Table 1 indicates IC50 values (μM) against PRMT5 for exemplary compounds in the presence of SAM as cofactor, with no cofactor, and with MTA as cofactor, respectively (columns 4-6). […] Ki values can be calculated from the IC50 values as described in the Examples section. As detailed in the Examples section, for the assay performed in the presence of SAM, IC50=Ki×1.5 (Ki=IC50/1.5).

PRMT5 [4] = target: T1, PRMT5; assay: PRMT5 biochemical IC50 assay with MTA as cofactor; details: PRMT5, MTA as cofactor; read-out: MTA IC50
PRMT5 [5] = target: T1, PRMT5; assay: PRMT5 biochemical IC50 assay with SAM as cofactor; details: PRMT5, SAM as cofactor; read-out: SAM IC50
[6] = tested on: HAP1 MTAP-deleted cell line; assay: SDMA in-cell western assay, HAP1 MTAP-deleted; format: cell-based; details: for IC50: HAP1 MTAP-deleted, read-out: HAP 1 MTAP deleted IC50; for MTAP intact/deleted ratio: IC50 ratio HAP1 MTAP-intact / HAP1 MTAP-deleted
Procedure, shortened: as §1

[7] = Homo sapiens, HAP1, SDMA in-cell western

SMILES	IC50 ([1]; Homo sapiens, HAP1, viability) [nM]	IC50 [2, 7] [nM]	IC50 (PRMT5 [3]) [nM]	IC50 (PRMT5 [4]) [nM]	IC50 (PRMT5 [5]) [nM]	IC50 [6, 7] [nM]	MTAP intact/deleted ratio ([6]; SDMA in-cell western)	IC50 ([1]; viability) [nM]	IC50 ([2]; SDMA in-cell western) [nM]	IC50 ([6]; SDMA in-cell western) [nM]
Cc1cc(NC(=O)C(=O)N2C[C@H](C)CC[C@H]2c2cccc(C3CCN(C)CC3)c2)cnc1N (single isomer, unassigned) [Compound 1291]	> 10000	> 1000	> 500	> 500	> 500	100 to 1000				
Cc1cc(NC(=O)C(=O)N2C[C@@H](C)[C@@H](OC(C)C)C[C@@H]2c2ccccc2)cnc1N (single isomer, unassigned) [Compound 1302]	> 10000	> 1000	> 500	> 500	> 500	> 1000				
C[C@@H]1CN(C(=O)C(=O)Nc2cnc(N)c(C3CC3)c2)[C@@H](c2ccc3scnc3c2)CC1(F)F (single isomer, unassigned) [Compound 1307]	< 1000	> 1000	50 to 500	50 to 500	> 500	< 100	A (an IC50 ratio greater than or equal to 10 fold)			
CCc1cc(NC(=O)C(=O)N2C[C@@H](C)CC[C@@H]2c2ccc3sc([C@@H]4CCN(C)C4)nc3c2)cnc1N (single isomer, unassigned) [Compound 1308]	< 1000	< 100	< 50	< 50	50 to 500	< 100	A (an IC50 ratio greater than or equal to 10 fold)			
Cc1cc(NC(=O)C(=O)N2C[C@@H](C)CC[C@@H]2c2ccc3sc(-c4cccnc4)nc3c2)cnc1N (single isomer, unassigned) [Compound 1310]	< 1000	< 100	< 50	< 50	50 to 500	< 100	A (an IC50 ratio greater than or equal to 10 fold)			
CCc1cc(NC(=O)C(=O)N2C[C@@H](C)CC[C@@H]2c2ccc3sc([C@H]4CCN(C)C4)nc3c2)cnc1N (single isomer, unassigned) [Compound 1311]	< 1000	< 100	< 50	< 50	< 50	< 100	A (an IC50 ratio greater than or equal to 10 fold)			
C[C@H]1CC[C@H](c2ccc3sc(C4CCN(C)CC4)nc3c2)N(C(=O)C(=O)Nc2cnc(N)c([C@H]3CCOC3)c2)C1 (single isomer, unassigned) [Compound 1312]	< 1000	> 1000	< 50	< 50	< 50	< 100				
Cc1nc2cc([C@H]3CC[C@H](C)CN3C(=O)C(=O)Nc3cnc(N)c(C4CC4)c3)ccc2s1 (single isomer, unassigned) [Compound 1313]	< 1000	100 to 1000	< 50	< 50	50 to 500	< 100	A (an IC50 ratio greater than or equal to 10 fold)			
CCc1cc(NC(=O)C(=O)N2C[C@@H](C)CC[C@@H]2c2ccc3sc([C@@H](C)N(C)C)nc3c2)cnc1N (single isomer, unassigned) [Compound 1316]	< 1000	< 100	< 50	< 50	50 to 500	< 100	A (an IC50 ratio greater than or equal to 10 fold)			
Cc1cc(NC(=O)C(=O)N2C[C@@H](C)CC[C@@H]2c2ccc(CCN(C)C)cc2)cnc1N (single isomer, unassigned) [Compound 1322]	> 10000	> 1000	> 500	> 500	> 500	> 1000				
Cc1cc(NC(=O)C(=O)N2C[C@H](C)[C@H](OC(F)(F)F)C[C@H]2c2ccc(F)cc2)cnc1N (single isomer, unassigned) [Compound 1323]	> 10000	> 1000	> 500	> 500	> 500	> 1000				
Cc1cc(NC(=O)C(=O)N2C[C@@H](C)[C@H](OC(C)C)C[C@@H]2c2ccccc2)cnc1N (single isomer, unassigned) [Compound 1327]	1000 to 10000	> 1000	> 500	> 500	> 500	> 1000				
Cc1cc(NC(=O)C(=O)N2C[C@@H](C)CC[C@@H]2c2ccc(N3CCN(C)CC3)cc2)cnc1N (single isomer, unassigned) [Compound 1328]	< 1000	< 100	< 50	< 50	50 to 500	< 100	B (an IC50 ratio greater than or equal to 3 fold but lower than 10 fold)			
C[C@H]1CC[C@H](c2ccc3sc(CCN(C)C)nc3c2)N(C(=O)C(=O)Nc2cnc(N)c(C3CC3)c2)C1 (single isomer, unassigned) [Compound 1331]	1000 to 10000	> 1000	> 500	> 500	> 500	100 to 1000	A (an IC50 ratio greater than or equal to 10 fold)			
COCCc1nc2cc([C@@H]3CC[C@@H](C)CN3C(=O)C(=O)Nc3cnc(N)c(C4CC4)c3)ccc2s1 (single isomer, unassigned) [Compound 1332]	< 1000	100 to 1000	50 to 500	< 50	50 to 500	< 100				
C[C@@H]1CC[C@@H](c2ccc3cncn3c2)N(C(=O)C(=O)Nc2cnc(N)c(C3CC3)c2)C1 (single isomer, unassigned) [Compound 1336, N-(6-amino-5-cyclopropylpyridin-3-yl)-2-(2-(imidazo[1,5-a]pyridin-6-yl)-5-methylpiperidin-1-yl)-2-oxoacetamide]	1000 to 10000	> 1000	> 500	> 500	> 500	100 to 1000				
C[C@H]1CC[C@H](c2ccc3sc(C4CCN(C)CC4)nc3c2)N(C(=O)C(=O)Nc2cnc(OC(F)(F)F)c(C(N)=O)c2)C1 (single isomer, unassigned) [Compound 1337]	< 1000	< 100	< 50	< 50	< 50	< 100	B (an IC50 ratio greater than or equal to 3 fold but lower than 10 fold)			
CCc1cc(NC(=O)C(=O)N2C[C@@H](C)CC[C@@H]2c2ccc(N3CCOC4(CN(C)C4)C3)cc2)cnc1N (single isomer, unassigned) [Compound 1339]	< 1000	100 to 1000	< 50	< 50	50 to 500	< 100	A (an IC50 ratio greater than or equal to 10 fold)			
COc1ncc(NC(=O)C(=O)N2C[C@@H](C)[C@@H](OC)C[C@@H]2c2ccc3scnc3c2)cc1C(N)=O (single isomer, unassigned) [Compound 1344]	1000 to 10000	> 1000	> 500	> 500	> 500	100 to 1000				
Cc1cc(NC(=O)C(=O)N2C[C@@H](C)CC[C@@H]2c2cc(F)c3[nH]ncc3c2)cnc1N (single isomer, unassigned) [Compound 1350]	< 1000	100 to 1000	< 50	< 50	50 to 500	< 100	A (an IC50 ratio greater than or equal to 10 fold)			
Cc1cc(NC(=O)C(=O)N2C[C@H](C)[C@H](OC(C)C)C[C@H]2c2ccccc2)cnc1N (single isomer, unassigned) [Compound 1351]	< 1000	< 100	< 50	< 50	< 50	< 100	B (an IC50 ratio greater than or equal to 3 fold but lower than 10 fold)			
CCc1cc(NC(=O)C(=O)N2C[C@@H](C)CC[C@@H]2c2cccc([C@H]3CCCN(C)C3)c2)cnc1N (single isomer, unassigned) [Compound 1353]			< 50	< 50	50 to 500		A (an IC50 ratio greater than or equal to 10 fold)	< 1000	100 to 1000	< 100
